Experimental data: US20170210723A1, “MOLECULES HAVING PESTICIDAL UTILITY, AND INTERMEDIATES, COMPOSITIONS, AND PROCESSES, RELATED THERETO” (priority 2016, published 2017)

What was measured:
[1] = system: Cabbage Looper (Trichoplusia ni); assay: Bioassays on CL, 128-well diet tray assay; format: in vivo; settings: Trichoplusia ni, 168 h; 50 μg/cm^2 on artificial diet, second instar larvae, five to seven days; read-out: CL % Control (or Mortality) rating
Description: Bioassays on CL were conducted using a 128-well diet tray assay.
One to five second instar CL larvae were placed in each well (3 mL) of the diet tray that had been previously filled with 1 mL of artificial diet to which 50 μg/cm^2 of the test molecule (dissolved in 50 μL of 90:10 acetone-water mixture) had been applied (to each of eight wells) and then allowed to dry. Trays were covered with a clear self-adhesive cover and held at 25° C., 14:10 light-dark for five to seven days. Percent mortality was recorded for the larvae in each well; activity in the eight wells was then averaged. The results are indicated in the table entitled “Table ABC: Biological Results” (See Table Section).
(§1) Bioassays on BAW and CL were conducted according to the procedures outlined in Example A: Bioassays on Beet Armyworm (“BAW”) and Cabbage Looper (“CL”) using the indicated concentrations.

[2] = system: Beet Armyworm (Spodoptera exigua); assay: Bioassays on BAW, 128-well diet tray assay; format: in vivo; settings: Spodoptera exigua, 168 h; 50 μg/cm^2 on artificial diet, second instar larvae, five to seven days; read-out: BAW % Control (or Mortality) rating
Description: Bioassays on BAW were conducted using a 128-well diet tray assay. One to five second instar BAW larvae were placed in each well (3 mL) of the diet tray that had been previously filled with 1 mL of artificial diet to which 50 μg/cm^2 of the test molecule (dissolved in 50 μL of 90:10 acetone-water mixture) had been applied (to each of eight wells) and then allowed to dry. Trays were covered with a clear self-adhesive cover and held at 25° C., 14:10 light-dark for five to seven days. Percent mortality was recorded for the larvae in each well; activity in the eight wells was then averaged. The results are indicated in the table entitled “Table ABC: Biological Results” (See Table Section).
as §1

Which results are given for `O=C(NCCS(=O)(=O)c1ccc(Cl)cc1)c1ccc(/C=C/C(c2cc(Cl)c(Cl)c(Cl)c2)C(F)(F)F)cc1Br` (stereo not drawn) [F4, (E)-2-Bromo-N-(2-((4-chlorophenyl)sulfonyl)ethyl)-4-(4,4,4-trifluoro-3-(3,4,5-trichlorophenyl)but-1-en-1-yl)benzamide]?
mortality at 50 µg/cm2 [1]: 50 to 100%; mortality at 50 µg/cm2 [2]: 50 to 100%

For `O=C(NCCS(=O)(=O)CC(F)(F)F)c1ccc(/C=C/C(c2cc(Cl)c(Cl)c(Cl)c2)C(F)(F)F)cc1Br` (stereo not drawn) [F10, (E)-2-Bromo-4-(4,4,4-trifluoro-3-(3,4,5-trichlorophenyl)but-1-en-1-yl)-N-(2-((2,2,2-trifluoroethyl)sulfonyl)ethyl)benzamide], which mortality at 50 µg/cm2 [1] is on record?
Its mortality at 50 µg/cm2 is 50 to 100%.

And the mortality at 50 µg/cm2 [2]?
Its mortality at 50 µg/cm2 is 50 to 100%.

How did the mortality at 50 µg/cm2 [1] turn out when `CC(C)[C@H](C[S+]([O-])CC(F)(F)F)NC(=O)c1ccc(/C=C/C(c2cc(Cl)c(Cl)c(Cl)c2)C(F)(F)F)cc1C(F)(F)F` (stereo partly drawn) [F15, N-((2R)-3-methyl-1-((2,2,2-trifluoroethyl)sulfinyl)butan-2-yl)-4-((E)-4,4,4-trifluoro-3-(3,4,5-trichlorophenyl)but-1-en-1-yl)-2-(trifluoromethyl)benzamide] was run?
The mortality at 50 µg/cm2 was 50 to 100%.

And the mortality at 50 µg/cm2 [2]?
Its mortality at 50 µg/cm2 is 50 to 100%.

How did the mortality at 50 µg/cm2 [1] turn out when `CC(C)[C@H](CS(=O)(=O)CC(F)(F)F)NC(=O)c1ccc(/C=C/C(c2cc(Cl)c(Cl)c(Cl)c2)C(F)(F)F)cc1C(F)(F)F` (stereo partly drawn) [F16, N—((R)-3-Methyl-1-((2,2,2-trifluoroethyl)sulfonyl)butan-2-yl)-4-((E)-4,4,4-trifluoro-3-(3,4,5-trichlorophenyl)but-1-en-1-yl)-2-(trifluoromethyl)benzamide] was run?
Its mortality at 50 µg/cm2 is 50 to 100%.

And the mortality at 50 µg/cm2 [2]?
Its mortality at 50 µg/cm2 is 50 to 100%.

What does the source list for `CC[C@H](CS(=O)(=O)CC(F)(F)F)NC(=O)c1ccc(/C=C/C(c2cc(Cl)c(Cl)c(Cl)c2)C(F)(F)F)cc1C(F)(F)F` (stereo partly drawn) [F17, 4-((E)-4,4,4-Trifluoro-3-(3,4,5-trichlorophenyl)but-1-en-1-yl)-N—((R)-1-((2,2,2-trifluoroethyl)sulfonyl)butan-2-yl)-2-(trifluoromethyl)benzamide]?
mortality at 50 µg/cm2 [1]: 50 to 100%; mortality at 50 µg/cm2 [2]: 50 to 100%

What does the source list for `CC[C@H](C[S+]([O-])CC(F)(F)F)NC(=O)c1ccc(/C=C/C(c2cc(Cl)c(Cl)c(Cl)c2)C(F)(F)F)cc1C(F)(F)F` (stereo partly drawn) [F18, 4-((E)-4,4,4-Trifluoro-3-(3,4,5-trichlorophenyl)but-1-en-1-yl)-N-((2R)-1-((2,2,2-trifluoroethyl)sulfinyl)butan-2-yl)-2-(trifluoromethyl)benzamide]?
mortality at 50 µg/cm2 [1]: 50 to 100%; mortality at 50 µg/cm2 [2]: 50 to 100%

Which results are given for `CC[C@H](CS(=O)(=O)CC1CC1(F)F)NC(=O)c1ccc(/C=C/C(c2cc(Cl)c(Cl)c(Cl)c2)C(F)(F)F)cc1Br` (stereo partly drawn) [F19, 2-Bromo-N-((2R)-1-(((2,2-difluorocyclopropyl)methyl)sulfonyl)butan-2-yl)-4-((E)-4,4,4-trifluoro-3-(3,4,5-trichlorophenyl)but-1-en-1-yl)benzamide]?
mortality at 50 µg/cm2 [1]: 50 to 100%; mortality at 50 µg/cm2 [2]: 50 to 100%

For `C[C@H](C[S+]([O-])CC(F)(F)F)NC(=O)c1ccc(/C=C/C(c2cc(Cl)c(Cl)c(Cl)c2)C(F)(F)F)cc1C(F)(F)F` (stereo partly drawn) [F23, 4-((E)-4,4,4-Trifluoro-3-(3,4,5-trichlorophenyl)but-1-en-1-yl)-N-((2R)-1-((2,2,2-trifluoroethyl)sulfinyl)propan-2-yl)-2-(trifluoromethyl)benzamide], which mortality at 50 µg/cm2 [1] is on record?
Its mortality at 50 µg/cm2 is 50 to 100%.

And the mortality at 50 µg/cm2 [2]?
The mortality at 50 µg/cm2 was 50 to 100%.

For `CCO/C(=C\C(c1cc(Cl)c(Cl)c(Cl)c1)C(F)(F)F)c1ccc(C(=O)N[C@H](C)CSCC(F)(F)F)c(C(F)(F)F)c1` (stereo partly drawn) [F29, 4-((Z)-1-ethoxy-4,4,4-trifluoro-3-(3,4,5-trichlorophenyl)but-1-en-1-yl)-N—((R)-1-((2,2,2-trifluoroethyl)thio)propan-2-yl)-2-(trifluoromethyl)benzamide], which mortality at 50 µg/cm2 [1] is on record?
Its mortality at 50 µg/cm2 is 0%.

What about the mortality at 50 µg/cm2 [2] of the same compound?
The mortality at 50 µg/cm2 was 50 to 100%.
